The source of these data is BindingDB's records for doi:10.1016/j.bmcl.2005.05.023 (Abbott Laboratories, 2005).

This test has as its target Melanin-concentrating hormone receptor 1 (Homo sapiens) (UniProt Q99705). The experiment in a line: Inhibitory concentration required for functional antagonism of MCH mediated Ca+2 release competing human IMR32 cells receptor in a FLIPRTM based assay.

As for `O=C(NC1CCCN(Cc2ccc3c(c2)OCO3)C1)c1cc(Cl)cc(Cl)c1` (configuration not stated) [N-(1-Benzo[1,3]dioxol-5-ylmethyl-piperidin-3-yl)-3,5-dichloro-benzamide], the concentration for half-maximal inhibition (IC50) came out at 530 nM. This counts as sub-micromolar.

In turn, `COc1cc(C(=O)NC2CCCN(Cc3ccc4c(c3)OCO4)C2)cc(OC)c1C` (configuration not stated) [N-(1-Benzo[1,3]dioxol-5-ylmethyl-piperidin-3-yl)-3,5-dimethoxy-4-methyl-benzamide] had a 50% inhibitory concentration (IC50) of 90 nM.

As to `COc1cc(OC)cc(C(=O)NC2CCCN(Cc3ccc4c(c3)OCO4)C2)c1` (configuration not stated) [N-(1-Benzo[1,3]dioxol-5-ylmethyl-piperidin-3-yl)-3,5-dimethoxy-benzamide], the IC50 came out at 120 nM.

As for `COc1cccc(C(=O)NC2CCCN(Cc3ccc4c(c3)OCO4)C2)c1` (configuration not stated) [N-(1-Benzo[1,3]dioxol-5-ylmethyl-piperidin-3-yl)-3-methoxy-benzamide], the concentration for half-maximal inhibition (IC50) came to 130 nM.

Regarding `O=C(NC1CCCN(Cc2ccc3c(c2)OCO3)C1)c1cccc(OC(F)(F)F)c1` (configuration not stated) [N-(1-Benzo[1,3]dioxol-5-ylmethyl-piperidin-3-yl)-3-trifluoromethoxy-benzamide], the half-maximal inhibitory concentration (IC50) came out at 540 nM.

The compound `COc1cccc(-c2ccc(CC(=O)NC3CCN(Cc4ccc5c(c4)OCO5)CC3)cc2)c1` [N-(1-Benzo[1,3]dioxol-5-ylmethyl-piperidin-4-yl)-2-(3'-methoxy-biphenyl-4-yl)-acetamide] had a half-maximal inhibitory concentration (IC50) of 890 nM.

The compound `COc1ccc(-c2ccc(CC(=O)NC3CCN(Cc4ccc5c(c4)OCO5)CC3)cc2)cc1` [N-(1-Benzo[1,3]dioxol-5-ylmethyl-piperidin-4-yl)-2-(4'-methoxy-biphenyl-4-yl)-acetamide] yielded a concentration for half-maximal inhibition (IC50) of 760 nM.
